# From US20190358264A1, “METHODS OF TREATING DISEASES ASSOCIATED WITH ILC2 CELLS” (Limm Therapeutics, SA, priority 2016, published 2019)
# Experiments:
# Ca^2+ influx in ILC2s = assay: Calcium signaling (Fluo-4) in purified ILC2s; assay type: cell-based, mouse; details: NmU23 added 60 seconds after baseline; small intestine ILC2s
# Protocol: Purified ILC2s from the small intestine were cultured with IL-2 and IL-7 (10 ng/mL) and FBS deprived for 6 hours prior to calcium signaling experiments. ILC2s were stained with Fluo-4 Direct Calcium Assay Kit (Thermo Fisher Scientific) according to manufacturer's protocol. Calcium (Ca^2+) influx, represented by the Fluo-4 AM, was recorded over time on a BD Accuri C6 (BD Biosciences) flow cytometer as previously reported^36. The recombinant mouse NmU23 was added 60 seconds after ILC2 baseline recording. Data was represented by the mean values of Ca^2+ influx kinetics between the ILC2 baseline response and the peak of response after recombinant mouse NmU23 addition.
# Th2 = assay: In vitro stimulation of Th2 cells with NmU23, type 2 cytokine gene expression; assay type: cell-based, mouse; details: NmU23 100 ng/mL in vitro (FIG. 9f)
# Source text: FIGS. 9a-9i: FIG. 9a, Nmur1 quantitative RT-PCR analysis in the lungs at day 6 post Nippostrongylus brasiliensis (NB)—infection in lung. Eosinophils (Eo); Mast cells (Mast); Macrophages (Mø); Neutrophils (Neu); naive T cells (T); Innate lymphoid cells type 2 (ILC2). FIG. 9b, NMUR1 expression in human adaptive (CD4 T cells) and innate type 2 lymphocytes ILC2 from blood. FIG. 9c, Type 2 cytokine gene expression in human ILC2 and Th2 after in vitro stimulation with the peptide NmU25. FIG. 9d, Nmur1 expression in lung ILC2 before and after infection (at day 6). FIG. 9e, Nmur1 expression in steady state in Common lymphoid progenitor (CLP); Common helper innate lymphoid progenitor (CHILP), Bone marrow ILC2 progenitor (ILC2P) and Eo, Mast, Mø, Neu, Dendritic cells (DC); naive T cells (T); T-helper 2 cells (Th2); memory T cells, B cells (B), Lamina Propria glial cells (G) and neurons (N). n=3-6. FIG. 9f, Type 2 cytokine gene expression in intestinal ILC2 and Th2 after in vitro stimulation with the peptide NmU23 (100 ng/mL). n=3-6. FIG. 9g, Confocal analysis of intestinal lamina propria. Green: neurons (Ret^GFP); Cyan: KLRG1; red: CD3. […]
# Total RNA was extracted using RNeasy micro kit (Qiagen) according to the manufacturer's protocol. RNA concentration was determined using Nanodrop Spectrophotometer (Nanodrop Technologies). Quantitative real-time RT-PCR was performed as previously described^5,8. […]
# intestine ILC2 = assay: Ki67 expression in intestine ILC2 after in vivo administration of NmU23; parameters: species or system mouse; details: NmU23 4 g/day during 2 days (FIG. 10b)
# Protocol: FIGS. 10a-10d: FIG. 10a, Ki67 expression in intestinal ILC2s after an overnight in vitro stimulation with NmU23 alone (100 ng/mL, Phoenix Pharmaceutical) or NmU23 together with the survival cytokines Interleukin (IL)-2 and/or IL-7 (10 ng/mL). FIG. 10b, Ki67 expression in intestine ILC2 after in vivo administration of NmU23 (4 g/day during 2 days). n=5. FIG. 10c, ILC2-derived type 2 cytokines (IL-5, IL-13 and Amphiregulin (Areg)) in sorted intestine ILC2 after an overnight stimulation with NmU23, mouse recombinant IL-25 or IL-33 (R&D) (10, 50 and 100 ng/mL). Negative control: unstimulated ILC2, Positive control: ILC2 activated with phorbol 12-myristate 13-acetate (PMA, 50 ng/ml) plus ionomycin (500 ng/ml). n=3. FIG. 10d, Dot plots representative of the cytokine production with increasing dose of NmU23, rIL-25 and rIL-33. *P<0.05; **P<0.01; ***P<0.001; ****P<0.0001; ns not significant.
# NFAT = NFAT translocation in ILC2 by confocal microscopy; assay type: cell-based, mouse; details: NmU23 100 ng/mL, 90 minutes, Lamina Propria ILC2, anti-NFAT2 staining (FIG. 11c)
# Protocol: FIGS. 11a-11b: ILC2 were FBS deprived for 2 hours prior to treatment with either (FIG. 11a) 11R-VIVIT (inhibits NFAT activation) (10 μM) or (FIG. 11b) cyclosporin A (CsA, […]). Expression of type 2 cytokines were measured by quantitative RT-PCR (FIGS. 11a,11b). n=3-6. FIG. 11c, Deprivated ILC2 from Lamina Propria were stimulated 90′ with NmU23 (100 ng/mL), fixed, permeabilized and stained with anti-NFAT2 monoclonal antibody (abcam). Cells were analyzed by confocal microscopy. *P<0.05; **P<0.01; ***P<0.001; ****P<0.0001; ns not significant.
substance,measurement,setting,value
"recombinant mouse Neuromedin U 23 peptide (FKAEYQSPSVGQSKGYFLFRPRN; listed as Mus musculus) [NmU23, NMUR1 agonist neuropeptide, Phoenix pharmaceuticals]",Ca^2+ influx in ILC2s (Fluo-4 AM intensity),Ca^2+ influx in ILC2s,immediate and robust Ca^2+ influx
same,type 2 cytokine gene expression in adaptive T cell counterparts (Th2),Th2,unperturbed
same,"ILC2 proliferation as measured by Ki67, in vivo",intestine ILC2,increased ILC2 proliferation
same,translocation of NFAT in ILC2,NFAT,efficient translocation of NFAT from the cytoplasm to the nucleus
